Experimental data taken from patent US8053578B2, “Alpha-fluoroalkyl dihydrotetrabenazine imaging agents and probes” (General Electric Company, priority 2007, dated 2011).

Molecular target: T1, VMAT-2 (Homo sapiens, UniProt Q05940)
T1 construct: Novascreen Biosciences Corporation (contract assay provider) protocol Cat. No. 100-0751
Test: VMAT-2 binding affinity measurement (Novascreen protocol Cat. No. 100-0751)
Details: for Ki: Novascreen Biosciences protocol Cat. No. 100-0751; for VMAT-2 binding affinity, in words, relative to (+)-DTBZ control (Compound 18): summary of the Table 9 data
Method: In addition, the VMAT-2 binding affinity of a fluoroalkyl tetrabinazine carbinol compound 38 bearing an acetoxy group at ring position-2 was also measured. VMAT-2 binding affinity measurements were carried out by Novascreen Biosciences Corporation (Hanover, Md., USA) using protocol Cat. No. 100-0751. Novascreen, Inc. is a commercial provider of biological assays for the pharmaceutical industry.

T1 sequence (Q05940 whole entry, species assumed): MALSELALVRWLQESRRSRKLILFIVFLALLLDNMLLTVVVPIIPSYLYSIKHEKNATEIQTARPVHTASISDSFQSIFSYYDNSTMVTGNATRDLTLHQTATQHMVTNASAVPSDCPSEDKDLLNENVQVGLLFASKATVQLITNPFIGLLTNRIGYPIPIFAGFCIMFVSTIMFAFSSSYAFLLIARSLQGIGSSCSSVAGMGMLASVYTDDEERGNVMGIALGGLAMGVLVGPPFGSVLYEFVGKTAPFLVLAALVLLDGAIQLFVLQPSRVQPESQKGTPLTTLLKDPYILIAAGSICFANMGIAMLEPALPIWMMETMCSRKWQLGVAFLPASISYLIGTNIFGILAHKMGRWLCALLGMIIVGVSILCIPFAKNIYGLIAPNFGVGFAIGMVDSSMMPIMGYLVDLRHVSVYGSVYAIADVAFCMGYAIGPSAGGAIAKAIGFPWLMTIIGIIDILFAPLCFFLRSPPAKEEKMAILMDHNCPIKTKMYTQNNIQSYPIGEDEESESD

Row | Ki | VMAT-2 binding affinity, in words, relative to (+)-DTBZ control (Compound 18) | SMILES
1 | 2.6 nM | very high binding affinity | COc1cc2c(cc1OC)[C@H]1C[C@H](O)[C@H](CC(C)(C)CC[19F])CN1CC2 [Compound 2-epi-32]
2 | 6.4 nM | very high binding affinity | COc1cc2c(cc1OC)[C@H]1C[C@@H](O)[C@H](CCCC[19F])CN1CC2 [Compound 31]
3 | 0.45 nM | very high binding affinity | COc1cc2c(cc1OC)[C@H]1C[C@@H](O)[C@H](CC(C)(C)CC[19F])CN1CC2 [Compound 32]

Row | SMILES | Ki | VMAT-2 binding affinity, in words, relative to (+)-DTBZ control (Compound 18)
4 | COc1cc2c(cc1OC)[C@H]1C[C@@](C#CCF)(OC(C)=O)[C@H](CC(C)C)CN1CC2 [Compound 38] | – | somewhat lower yet still robust binding activity
5 | COc1cc2c(cc1OC)[C@H]1C[C@](O)(C#CCF)[C@H](CC(C)C)CN1CC2 [Compound 39] | – | somewhat lower yet still robust binding activity
